In publication PMC9221290, “Alkaloids of Dicranostigma franchetianum (Papaveraceae) and Berberine Derivatives as a New Class of Antimycobacterial Agents” (Biomolecules, 2022):
Read-outs that look alike come from different tables or passages of the source.

Legend:
[1] = test system: Mtb H37Ra ITM-M006710 (ATCC 9431); assay: Antimycobacterial microdilution broth assay (resazurin), Mtb H37Ra; assay type: cell-based, Mycobacterium tuberculosis; conditions: Mycobacterium tuberculosis
[2] = test system: Mycolicibacterium aurum DSM 43999 (ATCC 23366); assay: Antimycobacterial microdilution broth assay (resazurin), M. aurum; assay type: cell-based; conditions: Mycolicibacterium aurum, 72 h, read-out: MIC M. aurum, microdilution broth, resazurin, 72 h
[3] = test system: Mycobacterium avium DSM 44156 (ATCC 25291); assay: Antimycobacterial microdilution broth assay (resazurin), M. avium; assay type: cell-based; conditions: Mycobacterium avium, 96 h, read-out: MIC M. avium, microdilution broth, resazurin, 96 h
[4] = test system: Mycobacterium kansasii DSM 44162 (ATCC 12478); assay: Antimycobacterial microdilution broth assay (resazurin), M. kansasii; assay type: cell-based; conditions: Mycobacterium kansasii, 96 h, read-out: MIC M. kansasii, microdilution broth, resazurin, 96 h
[5] = test system: Mycolicibacterium smegmatis DSM 43465 (ATCC 607); assay: Antimycobacterial microdilution broth assay (resazurin), M. smegmatis; assay type: cell-based; conditions: Mycolicibacterium smegmatis, 48 h, read-out: MIC M. smegmatis, microdilution broth, resazurin, 48 h
[6] = test system: HepG2 cells
[7] = test system: HepG2 cells; assay: cells; conditions: Homo sapiens, HepG2, 24 h
[8] = in vitro; conditions: human, % of cell viability compared to control; for viability at 1 µM: HepG2, 1 µM; for viability at 5 µM: HepG2, 5 µM; for viability at 10 µM: HepG2, 10 µM; for viability at 25 µM: HepG2, 25 µM; for viability at 50 µM: HepG2, 50 µM; for viability at 75 µM: HepG2, 75 µM; for viability at 100 µM: HepG2, 100 µM; for viability at 0.1 µM: HepG2, 0.1 µM
[9] = 120 h, microdilution broth, resazurin, 120 h, read-out: MIC Mtb H37Ra
[10] = calculated from MIC (µg/mL) and MW, read-out: MIC Mtb H37Ra
[11] = read-out: HepG2 IC50, 1. measurement, MTT, 24 h, single measurement 1
[12] = read-out: HepG2 IC50, 2. measurement, MTT, 24 h, single measurement 2
[13] = read-out: HepG2 IC50, 3. measurement, MTT, 24 h, single measurement 3
[14] = read-out: HepG2 IC50, MTT, 24 h incubation

| Compound | MIC [2] [µg/mL] | MIC [3] [µg/mL] | MIC [4] [µg/mL] | MIC [5] [µg/mL] | SI (selectivity index) [6] | IC50 [7, 11] [µM] | IC50 [7, 12] [µM] | IC50 [7, 13] [µM] | IC50 [7, 14] [µM] | viability at 1 µM ([8]; 1. measurement) [%] | viability at 5 µM ([8]; 1. measurement) [%] | viability at 10 µM ([8]; 1. measurement) [%] | viability at 100 µM ([8]; 1. measurement) [%] | viability at 1 µM ([8]; 2. measurement) [%] | viability at 5 µM ([8]; 2. measurement) [%] | viability at 10 µM ([8]; 2. measurement) [%] | viability at 25 µM ([8]; 2. measurement) [%] | viability at 50 µM ([8]; 2. measurement) [%] | viability at 75 µM ([8]; 2. measurement) [%] | viability at 100 µM ([8]; 2. measurement) [%] | further results |
| --- | --- | --- | --- | --- | --- | --- | --- | --- | --- | --- | --- | --- | --- | --- | --- | --- | --- | --- | --- | --- | --- |
| COc1ccc2cc3[n+](cc2c1OCc1ccccc1C)CCc1cc2c(cc1-3)OCO2 [16b, 9-O-(2-methylbenzyl)berberine chloride] | 7.81 | 3.91 | 3.91 | 1.95 | 2.32 | 36 | 38.6 | 43.2 | 39.3 ± 3.62 | 96 | 83.6 | 73 | 37.5 | 97.8 | 87.1 | 76.6 | 51.6 | 42.5 | 41.1 | 33.8 | MIC [1, 9]: 7.81 µg/mL; MIC [1, 10]: 16.9 µM; viability at 25 µM ([8]; 1. measurement): 48.6%; viability at 50 µM ([8]; 1. measurement): 41.5%; viability at 75 µM ([8]; 1. measurement): 39.3%; viability at 0.1 µM ([8]; 3. measurement): 99.5%; viability at 1 µM ([8]; 3. measurement): 99.4%; viability at 5 µM ([8]; 3. measurement): 88.8%; viability at 10 µM ([8]; 3. measurement): 76.5%; viability at 25 µM ([8]; 3. measurement): 51.6%; viability at 50 µM ([8]; 3. measurement): 44.9%; viability at 75 µM ([8]; 3. measurement): 42.6%; viability at 100 µM ([8]; 3. measurement): 38.5% |
| COc1ccc2cc3[n+](cc2c1OCc1cccc(C)c1)CCc1cc2c(cc1-3)OCO2 [16c, 9-O-(3-methylbenzyl)berberine chloride] | 3.12 | 6.25 | 6.25 | 1.56 | 3.49 | 55.6 | 43.4 | 42.3 | 47.1 ± 7.38 | 87.2 | 88.3 | 74 | 35.1 | 88.3 | 78.7 | 68.3 | 52.9 | 47.9 | 45.7 | 39 | MIC [1, 9]: 6.25 µg/mL; MIC [1, 10]: 13.5 µM; viability at 20 µM ([8]; 1. measurement, HepG2, 20 µM): 58.4%; viability at 40 µM ([8]; 1. measurement, HepG2, 40 µM): 54.5%; viability at 60 µM ([8]; 1. measurement, HepG2, 60 µM): 53.3%; viability at 80 µM ([8]; 1. measurement, HepG2, 80 µM): 49.5%; viability at 0.1 µM ([8]; 3. measurement): 102%; viability at 1 µM ([8]; 3. measurement): 99.8%; viability at 5 µM ([8]; 3. measurement): 78.9%; viability at 10 µM ([8]; 3. measurement): 64.9%; viability at 25 µM ([8]; 3. measurement): 48.6%; viability at 50 µM ([8]; 3. measurement): 47.3%; viability at 75 µM ([8]; 3. measurement): 46.1%; viability at 100 µM ([8]; 3. measurement): 42.5% |
| COc1ccc2cc3[n+](cc2c1OCc1ccc(C)cc1)CCc1cc2c(cc1-3)OCO2 [16d, 9-O-(4-methylbenzyl)berberine chloride] | 6.25 | 1.98 | 3.91 | 1.56 | 2.54 | 19.3 | 16 | 12.3 | 15.9 ± 3.48 | 96.1 | 70 | 55.6 | 7.68 | 92.6 | 64.6 | 48 | 45 | 41.4 | 34 | 15.7 | MIC ([1]; 120 h, read-out: MIC Mtb H37Ra, microdilution broth, resazurin, 120 h): 3.91 µg/mL; MIC ([1]; read-out: MIC Mtb H37Ra (µM), calculated from MIC (µg/mL) and MW): 8.46 µM; viability at 25 µM ([8]; 1. measurement): 48%; viability at 50 µM ([8]; 1. measurement): 43.7%; viability at 75 µM ([8]; 1. measurement): 32.6%; viability at 0.1 µM ([8]; 2. measurement): 93.3%; viability at 0.1 µM ([8]; 3. measurement): 79.8%; viability at 1 µM ([8]; 3. measurement): 76.5%; viability at 5 µM ([8]; 3. measurement): 68.2%; viability at 10 µM ([8]; 3. measurement): 52%; viability at 25 µM ([8]; 3. measurement): 47.6%; viability at 50 µM ([8]; 3. measurement): 45.2%; viability at 75 µM ([8]; 3. measurement): 18.3%; viability at 100 µM ([8]; 3. measurement): 11.4% |
| COc1ccc2cc3[n+](cc2c1OCc1cccc(Br)c1)CCc1cc2c(cc1-3)OCO2 [16f, 9-O-(3-brombenzyl)berberine chloride] | 1.56 | 3.12 | 3.12 | 0.78 | 2.34 | 14.1 | 17 | 10.5 | 13.9 ± 3.25 | 95.5 | 69.4 | 54.8 | 12.3 | 104 | 76.8 | 56.1 | 52.7 | 32.8 | 2.26 | 0.77 | MIC [1, 9]: 3.12 µg/mL; MIC [1, 10]: 5.93 µM; viability at 25 µM ([8]; 1. measurement): 48.3%; viability at 50 µM ([8]; 1. measurement): 39.3%; viability at 75 µM ([8]; 1. measurement): 28%; viability at 1 µM ([8]; 3. measurement): 90.5%; viability at 5 µM ([8]; 3. measurement): 62.6%; viability at 10 µM ([8]; 3. measurement): 49.4%; viability at 25 µM ([8]; 3. measurement): 43.7%; viability at 50 µM ([8]; 3. measurement): 23.7%; viability at 75 µM ([8]; 3. measurement): 2.27%; viability at 100 µM ([8]; 3. measurement): 1.1% |
